Experimental data reported in patent US9771602B2 (priority 2013, dated 2017).
Values joined by “and” are separate entries in the source; they are usually repeats but may differ in a detail not shown here. Equal values may be shown once. Where a name gives a salt, the structure may show the parent alone. Read-outs that look alike come from different tables or passages of the source.

Assays:
[1] = tested on: ethanologen yeast PNY 827; assay: microbe, parasite or virus in culture; assay type: cell-based, Saccharomyces cerevisiae; details: for Ki: read-out: KI (inhibitory constant on growth)
[2] = tested on: S. cerevisiae yeast strains PNY0860-1A, PNY827 and CEN.PK 113-7D; assay: Filter-disk growth inhibition assay with AHAS inhibitors on top agar plates; assay type: cell-based; details: filter disks containing 20 μg or 10 μg AHAS inhibitor; 72 hours at 30° C.
[3] = tested on: mixed cultures of ethanologen S. cerevisiae PNY 827 and the butanologen yeast S. cerevisiae PNY 2129; assay type: cell-based
[4] = tested on: NYLA84 ILV2-410::loxP71/66 with pLH468 and pLH475-JEA1; assay type: cell-based, S. cerevisiae; details: 0 μg/ml to 50 μg/ml sulfometuron methyl; strains expressing cytosolic acetolactate synthase
[5] = fit to squared inhibition kinetics
[6] = Saccharomyces cerevisiae, PNY827, read-out: IC50 on growth (inhibitor concentration with 50% μ°max)
[7] = fit to hybrid inhibition kinetics model

## Cc1cn[nH]c1.Cl [4-methylpyrazole hydrochloride]
[1]
  μ°max (fitted maximum specific growth rate without inhibitor): 0.58 L/h
[1]; [5]
  Ki: 41 mM
[1]; hydrochloride
  inhibitor-based mumax (corrected for effect of DMSO): 0.48 L/h and 0.38 L/h
  observed μmax: 0.48 L/h and 0.24 L/h

## O=C(O)c1cn[nH]c1 [4-pyrazolecarboxylic acid]
[1]
  inhibitor-based mumax (corrected for effect of DMSO): 0.59 L/h and 0.50 L/h
  μ°max (fitted maximum specific growth rate without inhibitor): 0.60 L/h
[1]; [5]
  Ki: 100 mM

## COc1cc(OC)nc(NC(=O)NS(=O)(=O)c2ncccc2C(=O)N(C)C)n1 [Accent, nicosulfuron methyl]
[2]
  zones of growth inhibition (inhibition of yeast growth): did not inhibit

## COC(=O)c1ccccc1S(=O)(=O)NC(=O)Nc1nc(C)nc(OC)n1 [Ally, metsulfuron methyl]
[2]
  zones of growth inhibition (inhibition of yeast growth): inhibit growth

## CCOC(=O)c1ccccc1S(=O)(=O)NC(=O)Nc1nc(Cl)cc(OC)n1 [Classic, chlorimuron ethyl]
[2]
  zones of growth inhibition (inhibition of yeast growth): inhibit growth

## C[S+](C)[O-] [DMSO]
[1]
  μmax (maximum specific growth rate): 0.56 L/h
  Ki: ~16 mM

## COC(=O)c1sccc1S(=O)(=O)NC(=O)Nc1nc(C)nc(OC)n1 [Harmony, thifensulfuron methyl]
[2]
  zones of growth inhibition (inhibition of yeast growth): did not inhibit

## O=C/C=C/c1ccccc1 [cinnamaldehyde, trans-cinnamaldehyde]
[3]
  DHIV + DHMB: 0.0 mM
[3]; 250 μM, inoculum ratios 1:1 and 1:11, EPT=8 h and EPT=48 h
  ratio of butanol vs. ethanol produced compared with no addition: lower
[3]; 25 mM, both mixed cultures (1:1 and 1:11), EPT=8 h and EPT=48 h
  growth of mixed cultures: No growth
[1]
  inhibitor-based mumax (corrected for effect of DMSO): 0.64 L/h and 0.63 L/h and 0.55 L/h
  observed μmax: 0.64 L/h and 0.63 L/h and 0.55 L/h
  μ°max (fitted maximum specific growth rate without inhibitor): 0.62 L/h
[1]; [6]
  IC50: 0.25 mM
[1]; [5]
  Ki: 0.25 mM
[1]; non-DMSO experiments: 200 mM, 100 mM, 50 mM, 25 mM, 10 mM, 1 mM
  cell growth: in none of the non-DMSO experiments any cell growth was observed

## C=O [formaldehyde]
[1]
  μ°max (fitted maximum specific growth rate without inhibitor): 0.59 L/h
[1]; [6]
  IC50: 0.9 mM

## O=CC(=O)O [glyoxylic acid, glyoxylic acid sodium salt monohydrate]
[1]
  μ°max (fitted maximum specific growth rate without inhibitor): 0.60 L/h
[1]; sodium salt monohydrate
  μmax (maximum specific growth rate): 0.59 L/h and 0.55 L/h

## c1cn[nH]c1 [pyrazole]
[3]
  DHIV + DHMB: 0.0 mM
[3]; 3 mM and 30 mM, inoculum ratios 1:1 and 1:11, EPT=8 h
  butanol-to-ethanol ratio compared with no inhibitor: dramatically increased
[3]; 30 mM, both inoculum ratios, EPT=48 h
  butanol:ethanol ratio compared with no inhibitor: significantly increased
[1]
  overall observable μ°max: 0.60 L/h
  μ°max 1: 0.52 L/h
  μ°max 2: 0.08 L/h
[1]; [6]
  IC50: 3.3 mM
[1]; [7]
  Ki: 2.8 mM

## O=S([O-])[O-].[Na+].[Na+] [sulfite, sodium sulfite]
[1]
  OD600corr [ ]: 0.081 and 0.087 and 0.088 and 0.092
[1]; 1 mM (F8-su-1), time 1.00 h
  OD600corr [ ]: 0.082
[1]; 1 mM (F8-su-1), time 2.25 h
  OD600corr [ ]: 0.121
[1]; 1 mM (F8-su-1), time 3.25 h
  OD600corr [ ]: 0.185
[1]; 1 mM (F8-su-1), time 4.25 h
  OD600corr [ ]: 0.307
[1]; 1 mM (F8-su-1), time 6.00 h
  OD600corr [ ]: 1.102
[1]; 1 mM (F8-su-1), time 23.67 h
  OD600corr [ ]: 11.157
[1]; 1 mM inhibitor
  μmax (maximum specific growth rate): 0.59 L/h
[1]; 2 mM (F9-su-2), time 1.00 h
  OD600corr [ ]: 0.086
[1]; 2 mM (F9-su-2), time 2.25 h
  OD600corr [ ]: 0.120
[1]; 2 mM (F9-su-2), time 3.25 h
  OD600corr [ ]: 0.173
[1]; 2 mM (F9-su-2), time 4.25 h
  OD600corr [ ]: 0.265
[1]; 2 mM (F9-su-2), time 6.00 h
  OD600corr [ ]: 0.887
[1]; 2 mM (F9-su-2), time 23.67 h
  OD600corr [ ]: 12.217
[1]; 2 mM inhibitor
  μmax (maximum specific growth rate): 0.54 L/h
[1]; 5 mM (F10-su-3), time 1.00 h
  OD600corr [ ]: 0.090
[1]; 5 mM (F10-su-3), time 2.25 h
  OD600corr [ ]: 0.116
[1]; 5 mM (F10-su-3), time 3.25 h
  OD600corr [ ]: 0.153
[1]; 5 mM (F10-su-3), time 4.25 h
  OD600corr [ ]: 0.208
[1]; 5 mM (F10-su-3), time 6.00 h
  OD600corr [ ]: 0.392
[1]; 5 mM (F10-su-3), time 9.58 h
  OD600corr [ ]: 2.572
[1]; 5 mM (F10-su-3), time 23.67 h
  OD600corr [ ]: 11.717
[1]; 5 mM inhibitor
  μmax (maximum specific growth rate): 0.33 L/h
[1]; 10 mM (F11-su-4), time 1.00 h
  OD600corr [ ]: 0.085
[1]; 10 mM (F11-su-4), time 2.25 h
  OD600corr [ ]: 0.111
[1]; 10 mM (F11-su-4), time 3.25 h
  OD600corr [ ]: 0.140
[1]; 10 mM (F11-su-4), time 4.25 h
  OD600corr [ ]: 0.175
[1]; 10 mM (F11-su-4), time 6.00 h
  OD600corr [ ]: 0.268
[1]; 10 mM (F11-su-4), time 9.58 h
  OD600corr [ ]: 1.102
[1]; 10 mM (F11-su-4), time 23.67 h
  OD600corr [ ]: 11.437
[1]; 10 mM inhibitor
  μmax (maximum specific growth rate): 0.23 L/h
[1]; 20 mM (F3-su-1), time 1.50 h
  OD600corr [ ]: 0.099
[1]; 20 mM (F3-su-1), time 2.67 h
  OD600corr [ ]: 0.115
[1]; 20 mM (F3-su-1), time 4.00 h
  OD600corr [ ]: 0.150
[1]; 20 mM (F3-su-1), time 5.33 h
  OD600corr [ ]: 0.182
[1]; 20 mM (F3-su-1), time 6.75 h
  OD600corr [ ]: 0.226
[1]; 20 mM (F3-su-1), time 9.42 h
  OD600corr [ ]: 0.396
[1]; 20 mM (F3-su-1), time 23.25 h
  OD600corr [ ]: 9.697
[1]; 20 mM inhibitor
  μmax (maximum specific growth rate): 0.18 L/h
[1]; 50 mM (F4-su-2), time 1.50 h
  OD600corr [ ]: 0.095
[1]; 50 mM (F4-su-2), time 2.67 h
  OD600corr [ ]: 0.116
[1]; 50 mM (F4-su-2), time 4.00 h
  OD600corr [ ]: 0.135
[1]; 50 mM (F4-su-2), time 5.33 h
  OD600corr [ ]: 0.161
[1]; 50 mM (F4-su-2), time 6.75 h
  OD600corr [ ]: 0.192
[1]; 50 mM (F4-su-2), time 9.42 h
  OD600corr [ ]: 0.295
[1]; 50 mM (F4-su-2), time 23.25 h
  OD600corr [ ]: 10.717
[1]; 50 mM inhibitor
  μmax (maximum specific growth rate): 0.14 L/h
[1]; [7]
  μ°max 1: 0.46 L/h
  μ°max 2: 0.15 L/h
  Ki: 4.4 mM
[1]; predicted by hybrid inhibition kinetics model
  overall observable μ°max: 0.61 L/h
[1]; read-out: IC50 on growth (inhibitor concentration with 50% μ°max), derived from inhibition kinetics and fitted parameters
  IC50: 6.2 mM

## COC(=O)c1ccccc1S(=O)(=O)NC(=O)Nc1nc(C)cc(C)n1 [sulfometuron methyl]
[2]
  zones of growth inhibition (inhibition of yeast growth): inhibit growth
[4]
  resistance (growth scored after overnight incubation): higher resistance
[1]
  overall observable μ°max: 0.59 L/h
  μmax (maximum specific growth rate): 0.04 L/h and 0.05 L/h
  μ°max 1: 0.55 L/h
  μ°max 2: 0.04 L/h
[1]; [6]
  IC50: < 0.1 mM
[1]; [7]
  Ki: < 0.1 mM
